How the values were obtained:
[1] = target: T1, EGF-receptor-specific tyrosine protein kinase (EGF-R-PTK; EGF-R ICD) (Homo sapiens, UniProt P00533); assay: Inhibition of the EGF-receptor-specific tyrosine kinase (recombinant intracellular domain of the EGF receptor); type: biochemical
T1 construct: recombinant intracellular domain of the EGF receptor
Protocol: The compounds of formula I inhibit the enzyme activity in comparison with the control without inhibitor by 50% (IC50), for example in a concentration of from 0.001 to 20 μM, especially from 0.01 to 5 μM.
Inhibition of the EGF-receptor-specific Tyrosine Kinase
In accordance with the method mentioned above and using the recombinant intracellular domain of the EGF receptor (Europ. J. Biochem. 207, 265-275 (1992)), the following IC50 values are obtained: […]

BALB/MK cells = assay: Inhibition of the growth of BALB/MK (mouse keratinocyte) cells in vitro, methylene blue staining; type: cell-based; details: 72 h, incubated for three days
Protocol: In a known test method (see Meyer et al., Int. J. Cancer 43, 851 (1989)) the inhibitory action of the compounds of formula I is determined briefly as follows: BALB/MK cells (10 000/microtiter plate well) are transferred to 96-well microtiter plates. The test compounds (dissolved in DMSO) are added in a series of concentrations (dilution series), so that the final concentration of DMSO is no greater than 1% (v/v). After the addition, the plates are incubated for three days, during which time the control cultures without test compound are able to undergo at least three cell division cycles. The growth of the MK cells is measured by means of methylene blue staining: after the incubation the cells are fixed with glutaraldehyde, washed with water and stained with 0.05% methylene blue. After a washing step, the stain is eluted with 3% HCl and the optical density per well of the microtitre plate is measured using a Titertek multiskan at 665 nm. IC50 values are determined by means of a computer-aided system using the formula
IC50 =[(ODtest -ODstart)/(ODcontrol
The IC50 value in those experiments is defined as that concentration of the test compound in question which results in a 50% decrease in the number of cells in comparison with the control without inhibitor.
The growth of BALB/MK cells in the presence of compounds of formula I is tested in accordance with the procedure described above. […]

v-abl kinase = v-abl kinase (Abelson murine leukemia virus, UniProt P00521); assay: Inhibition of the v-abl kinase ([Val5]-angiotensin II and [gamma-32P]-ATP as substrates); type: biochemical; details: v-abl tyrosine kinase
v-abl kinase, sequence (P00521 whole entry): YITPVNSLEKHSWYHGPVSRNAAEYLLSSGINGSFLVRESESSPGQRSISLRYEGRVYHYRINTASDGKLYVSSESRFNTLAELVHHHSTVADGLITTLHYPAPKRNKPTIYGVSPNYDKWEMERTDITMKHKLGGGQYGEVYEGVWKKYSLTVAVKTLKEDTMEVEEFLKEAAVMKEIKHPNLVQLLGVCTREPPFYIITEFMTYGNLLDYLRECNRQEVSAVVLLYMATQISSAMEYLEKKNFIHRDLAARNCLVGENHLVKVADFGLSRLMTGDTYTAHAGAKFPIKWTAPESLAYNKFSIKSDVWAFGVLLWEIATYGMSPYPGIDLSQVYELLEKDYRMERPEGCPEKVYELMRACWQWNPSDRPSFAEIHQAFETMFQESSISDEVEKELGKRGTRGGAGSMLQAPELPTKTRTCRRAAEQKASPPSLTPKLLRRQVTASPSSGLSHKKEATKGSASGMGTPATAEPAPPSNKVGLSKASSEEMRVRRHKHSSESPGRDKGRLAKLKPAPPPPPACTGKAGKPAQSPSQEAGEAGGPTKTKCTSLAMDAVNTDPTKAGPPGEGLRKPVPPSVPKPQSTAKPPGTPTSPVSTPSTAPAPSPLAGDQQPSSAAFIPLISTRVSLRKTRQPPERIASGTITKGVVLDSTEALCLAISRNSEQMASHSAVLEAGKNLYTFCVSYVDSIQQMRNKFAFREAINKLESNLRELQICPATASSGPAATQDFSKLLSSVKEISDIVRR
Protocol: The above-mentioned inhibition of the v-abl tyrosine kinase is determined in accordance with the methods of N. Lydon et at, Oncogene Research 5, 161-173 (1990) and J. F. Geissler et al., Cancer Research 52, 4492-4498 (1992), with [Val^5 ]-angiotensin II and [γ -^32 P]-ATP being used as substrates.
In accordance with the procedure mentioned above (Oncogene Research 5, 161-173 (1990) and Cancer Research 52, 4492-4498 (1992), the following IC50 values are obtained: […]

T1 sequence (P00533 669-1210 limits assumed): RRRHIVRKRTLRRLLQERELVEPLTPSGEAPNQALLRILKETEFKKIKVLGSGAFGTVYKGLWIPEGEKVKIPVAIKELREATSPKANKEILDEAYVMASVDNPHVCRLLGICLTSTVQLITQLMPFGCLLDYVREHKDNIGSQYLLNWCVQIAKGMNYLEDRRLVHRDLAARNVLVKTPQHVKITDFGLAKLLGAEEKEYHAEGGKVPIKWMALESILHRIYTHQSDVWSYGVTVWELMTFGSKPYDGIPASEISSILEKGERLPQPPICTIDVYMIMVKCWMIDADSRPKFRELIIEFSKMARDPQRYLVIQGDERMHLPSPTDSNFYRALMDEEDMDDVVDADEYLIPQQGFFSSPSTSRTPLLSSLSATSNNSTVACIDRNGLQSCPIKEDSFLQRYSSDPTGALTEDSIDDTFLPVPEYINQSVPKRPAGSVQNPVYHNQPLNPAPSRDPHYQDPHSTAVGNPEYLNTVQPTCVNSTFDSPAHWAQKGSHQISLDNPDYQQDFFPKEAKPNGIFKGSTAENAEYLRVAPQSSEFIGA

## Cc1[nH]c2ncnc(N3CCc4ccccc43)c2c1C [Example 1, 4-(2,3-Dihydroindol-1-yl)-5,6-dimethyl-7H-pyrrolo[2,3-d]pyrimidine]
[1]
  IC50: 1560 nM

## Cc1[nH]c2ncnc(N3CCCc4ccccc43)c2c1C [Example 5, 4-(1,2,3,4-Tetrahydroquinolin-1-yl)-5,6-dimethyl-7H-pyrrolo[2,3-d]pyrimidine]
[1]
  IC50: 2690 nM

## Nc1ccc(-c2cc3c(N4CCc5ccccc54)ncnc3[nH]2)cc1 [Example 7, 4-(2,3-Dihydroindol-1-yl)-6-(4-amino-phenyl)-7H-pyrrolo[2,3-d]pyrimidine]
[1]
  IC50: 210 nM
BALB/MK cells
  IC50: 15800 nM
v-abl kinase
  IC50: 78 nM

## Nc1ccc(-c2cc3c(N4CCCc5ccccc54)ncnc3[nH]2)cc1 [Example 11, 4-(1,2,3,4-Tetrahydroquinolin-1-yl)-6-(4amino-phenyl)-7H-pyrrolo[2.3-d]-pyrimidine]
[1]
  IC50: 26 nM
BALB/MK cells
  IC50: 760 nM
v-abl kinase
  IC50: 2 nM

— US6140317A, “Pyrrolopyrimidines and processes for their preparation” (Novartis AG, priority 1996, dated 2000)
